# PMC8125686, “Molecular Basis of Multiple Mitochondrial Dysfunctions Syndrome 2 Caused by CYS59TYR BOLA3 Mutation” (International Journal of Molecular Sciences, 2021)
# Target: T1, NFU1 (Homo sapiens, UniProt Q9UMS0)
# T1 sequence (Q9UMS0 10-254): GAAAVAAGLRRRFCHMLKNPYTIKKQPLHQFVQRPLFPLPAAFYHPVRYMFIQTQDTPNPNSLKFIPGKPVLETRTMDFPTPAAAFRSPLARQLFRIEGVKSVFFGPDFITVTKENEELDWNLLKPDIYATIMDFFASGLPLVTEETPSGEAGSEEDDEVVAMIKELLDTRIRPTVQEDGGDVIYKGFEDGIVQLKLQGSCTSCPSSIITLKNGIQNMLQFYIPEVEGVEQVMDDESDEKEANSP
# Test: 1H-15N HSQC NMR of cluster assembly on 15N-labelled apo NFU1
# Assay type: binding
# Conditions: cluster donor [2Fe-2S] C59Y BOLA3-GLRX5 at 1:1; 5 mM DTT; 5 mM GSH; anaerobic
smiles,measurement,value
[S]12[Fe]3[S]4[Fe]1[S]1[Fe]2[S]3[Fe]41 [[4Fe–4S]2+ cluster],amount of [4Fe-4S] NFU1 formed in the final mixture,25%
